The text below walks through data of ChEMBL document CHEMBL3886639, “2,5-disubstituted-pyridyl nicotinic ligands, and methods of use thereof” (2016).

Structures are written as SMILES.

The assay is described as follows: [3H]-Epibatidine Radioligand Binding Assay: Briefly, cultured cells at >80% confluence were removed from their flasks (80 cm^2) with a disposable cell scraper and placed in 10 mL of 50 mM Tris.HCl buffer (pH 7.4, 4 °C.). The cell suspension was centrifuged at 10,000×g for 5 min and the pellet was collected. The cell pellet was then homogenized in 10 mL buffer with a polytron homogenizer and centrifuged at 36,000 g for 10 min at 4 °C. The membrane pellet was resuspended in fresh buffer, and aliquots of the membrane preparation were used for binding assays. The concentration of [3H]-epibatidine used was ~500 pM for competition binding assays. […] Bound and free ligands were separated by vacuum filtration through Whatman GF/C filters treated with 0.5% polyethylenimine. The filter-retained radioactivity was measured by liquid scintillation counting. Specific binding was defined as the difference between total binding and nonspecific binding. Data from competition binding assays were analyzed using Prism 5 (GraphPad Software, San Diego, Calif.).

In general, Ki refers to the equilibrium dissociation constant of an inhibitor or competing ligand from its target.

Consider `CCCCC#Cc1cnc(C(F)(F)F)c(OC[C@@H]2CCN2)c1`, for which the Ki was greater than 100 µM.
